In data set [1] the test system is mBMDM. In words: qRT-PCR of inflammation-related factor transcription in LPS+BzATP-treated mBMDM. As to conditions: 10 ng/ml LPS, 300 μM BzATP and 400 ng/ml TDCA simultaneously 1 hour, FIG. 1B. It is filed as cell-based, mouse. How it is done: The bone marrow-derived macrophages of Example <1-1> were cultured in culture dishes at various densities and then collected (4×10^4, 5×10^5, 1×10^6 cells/well, 96-well, 24-well, and 12-well culture dishes, respectively). […] After the time expired, the cells were collected, stored at −80° C., and then subjected to qRT-PCR analysis.

Data set [2] deals with mBMDM. Kind of data set: IL-1β ELISA in mBMDM activated with LPS+ATP or LPS+BzATP. It is filed as cell-based, mouse. Conditions: then 0, 25, 100 or 400 ng/ml TDCA, FIG. 2B. How it is done:
The bone marrow-derived macrophages of Example <1-1> were cultured in culture dishes at various densities and then collected (4×10^4, 5×10^5, 1×10^6 cells/well, 96-well, 24-well, and 12-well culture dishes, respectively). […] After the time expired, the supernatant was collected, stored at −80° C., and then subjected to ELISA analysis.
Background: An ELISA detects its analyte on a solid surface through an enzyme-linked reagent.

A short description of data set [3]: phase 1 clinical trial: safety/tolerability and pharmacokinetics in healthy adult male volunteers. The data set is classed as in vivo, human. As to conditions: healthy males. How it is done: Forty healthy adult male volunteers in Korea were selected as subjects for the clinical trial. The clinical trial was conducted at Seoul National University Hospital (Seoul, Korea) and was targeted at people who met all of the selection criteria in [Table 1].
A randomized, double-blind, standard treatment-based placebo-controlled trial group was assigned to evaluate drug safety/tolerability and pharmacokinetics (PK) in clinical trial subjects. As a therapeutic agent, NuSepin, an injectable clinical agent containing TDCA, was used.
A screening test was performed on healthy male volunteers within 4 weeks (−28 d to −4 d) from the first administration date (1 d) of the study drug to select test subjects determined to be suitable for this clinical trial. […] In the morning on the study drug administration date (1 d), designated tests such as blood collection for pharmacokinetic analysis and safety evaluation were performed, and then the study drug or placebo was administered intravenously on an empty stomach. The test subjects were subjected to the clinical trial according to the set schedule and discharged from the hospital 1 day (2 d) after administration, and the subjects who completed all clinical trial schedules underwent a post-study visit between 4 d and 6 d.
• Monitoring of adverse events such as subjective and objective symptoms • Physical examination • Vital signs • Electrocardiogram (12-Lead ECG) test • Clinical laboratory test • Local toxicity assessment • Continuous ECG and SpO2 monitoring
Adverse events were described by dose group and treatment group based on severity and causal relationship with the stsudy drug, and the frequency and percentage of the number of test subjects with adverse events were compared and evaluated. Vital signs, electrocardiogram test, clinical laboratory tests, physical examination, monitoring of adverse events such as subjective and objective symptoms, continuous ECG and SpO2 monitoring, and the like were comprehensively reviewed, and statistical analysis was performed if necessary only on items determined to be clinically significant.
Pharmacokinetic variables were obtained by a non-compartmental analysis method for subjects who completed this clinical trial using appropriate and validated pharmacokinetic software (for example, Phoenix WinNonlin® (Version 8.0 or higher, Pharsight, CA, USA)), and descriptive statistics (mean, standard deviation, and the like) were obtained for each dose group and treatment group.

The subject of the next data set is mBMDM cells. In words: intracellular cAMP concentration in LPS-stimulated mBMDM (chemiluminescent analysis). The data set is classed as cell-based, mouse. Conditions: 100 ng/ml LPS and 400 ng/ml TDCA simultaneously for 30 minutes; FIG. 1A.
Data set [4] can be described thus: half-life estimate from non-clinical data. As to conditions: calculated based on estimates made from non-clinical data.
Data set [5] relates to mBMDM. In words: TNF-α ELISA in LPS-primed mBMDM. It is filed as cell-based, mouse. Conditions: 10 ng/ml LPS 3 hours, then 0, 25, 100, 400 ng/ml TDCA 1 hour, FIG. 1C. Here is the method:
After the time expired, the supernatant was collected, stored at −80° C., and then subjected to ELISA analysis.

In data set [6] the test system is sepsis induced by intravenous LPS in dogs. In words: canine LPS-induced sepsis (systemic inflammation) model. The data set is classed as in vivo, dog. Conditions: LPS i.v. Here is the method:
After LPS administration, blood pressure was monitored every 1 hour, blood was collected at 0, 1, 3, 6, 12, 18, 24, 36, and 48 h, and the animals were sacrificed at 48 h to complete the experiment.
The survival rate was examined by checking the number of beagle dogs that died for 48 hours in the two treatment groups in which sepsis was induced in Example <2-1>.
Blood pressure was measured hourly for 48 hours in the two treatment groups in which sepsis was induced in Example <2-1>.
Blood urea nitrogen (BUN) and creatinine tests were performed as renal function tests. Specifically, blood was collected hourly for 48 hours from the two treatment groups in which sepsis was induced in Example <2-1>, serum was separated, and then BUN and […] concentrations in the serum were measured.
Blood was collected hourly for 48 hours from the two treatment groups in which sepsis was induced in Example <2-1>, serum was separated, and then the inflammatory cytokine IL-1β in the serum was measured.

Where [7] appears, read: single i.v. NuSepin 0.1-1.6 mg/kg or placebo.

Experimental for mBMDM cells: Specifically, the bone marrow extracted from C57BL/6N mouse was differentiated in RPMI medium supplemented with 10% FBS, 100 U/ml penicillin streptomycin, 55 μM 2-mercaptoethanol, and 10 ng/ml recombinant mouse granulocyte-macrophage colony-stimulating factor (GM-CSF) for 7 days.

As to sodium taurodeoxycholate [TDCA], in the data set with mBMDM [1], the “intracellular transcriptional expression of ASC” value was “decreased”, the “intracellular transcriptional expression of Caspase1” value is reported as “decreased”, the “intracellular transcriptional expression of IL-1β” value is given as “decreased” and the “intracellular transcriptional expression of NLRP3” value is given as “decreased”. Besides, the “concentration of IL-1β produced by inflammation activation” value with mBMDM [2] is listed as “decreases in proportion to the amount of TDCA used for treatment”. The PK properties entry in data set [3] (single i.v. 0.1, 0.2, 0.4, 0.8, 1.6 mg/kg) is on record as “concentration dependent manner”. In data set [3] (setting [7]), the drug-related side effects result is reported as “one has mild IMD (immunomodulatory drugs)-related side effects”; the “severity and outcome of side effects” value is “all of the side effects are not severe and recover without treatment”. In addition, the “clinical trial subjects with side effects” value in data set [3] (single i.v. NuSepin 0.1-1.6 mg/kg or placebo, 40 subjects) was “three of the clinical trial subjects have side effects”. The “cAMP concentration in cells” value with mBMDM cells is on record as “recovered”. Also, in data set [4], the “half-life of the drug” value is listed as “approximately 1 hour”. Besides, in the data set on mBMDM [5], the “TNF-α produced by LPS” value is “decreased”. Moreover, the survival rate entry in data set [6] (TDCA i.v. 2, 1, 1 mg/kg at 12-hour intervals, 48 hours, half of placebo animals died, FIG. 3B) is “all animals administered with TDCA have survived until 48 hours”. Besides, in data set [6] (TDCA i.v. 2, 1, 1 mg/kg, FIG. 3C), the “blood pressure (hypotensive shock)” value was “hypotensive shock tends to be inhibited”. The “increase in level of BUN in the blood” value in data set [6] (TDCA i.v. 2, 1, 1 mg/kg, FIG. 3D) is recorded as “suppressed”. Moreover, the “increase in level of creatinine in the blood” value in data set [6] (TDCA i.v. 2, 1, 1 mg/kg, FIG. 3E) was “suppressed”. Further, in data set [6] (TDCA i.v. 2, 1, 1 mg/kg, FIG. 3F), the IL-1β in serum entry is “further inhibited than those in the placebo group”. Also, the IL-8 in serum result in data set [6] (TDCA i.v. 2, 1, 1 mg/kg, FIG. 3G) was “further inhibited than those in the placebo group”.
